# Laboratory results from US6113896A, “Pharmaceutical compositions containing ecotin and homologs thereof” (priority 1994, dated 2000).
# Entries after “also recorded” stand apart in the source; their conditions may differ.
# How the values were obtained:
# FXa [1] = test: Specificity assay, FXa; type: biochemical, human; settings: 100 nM inhibitor, ~1 h, 1.2 nM enzyme
# Method: (§1) Specificity Assays The following assays were used to test the specificity of ecotin and the M84K and M84R mutants against various proteases. Ecotin, M84K, M84R (100 nM each), or a control blank were incubated at room temperature for ~1 h with each enzyme. The enzymes tested (enzyme concentration, buffer, substrate) were FXa (1.2 nM, Buffer A, 0.7 mM Spectrozyme fXa), thrombin (3.7 nM, Buffer A, 0.7 mM S2366), TF.cndot.FVIIa (12.0 nM, Buffer B, 0.7 mM S2366), FXIa (1.2 nM, Buffer A containing 1 mg/ml BSA, 0.7 mM S2366), activated protein C (4.3 nM, Buffer A, 0.7 mM S2366), plasmin (15 nM, Buffer A, 1 mM S2251), single chain t-PA (15 nM, Buffer A, 2.5 mM S2288), Factor XIIa (10 nM, Buffer A, 0.5 mM S2302, plasma kallikrein (10 nM, Buffer A, 0.5 mM S2302), HLE (17 nM, 0.1 M Tris, pH 7.5, 0.5 M NaCl and 0.005 % Triton X-100, 0.42 mM MeOSuc-AAPV-pNA) (SEQ ID NO:9), bovine trypsin (10 nM, Buffer A, 0.25 mM Spectrozyme fXa), and bovine chymotrypsin (10 nM, Buffer A, 1 mM Suc-AAPF-pNA) (SEQ ID NO:10). Buffer A contains 50 mM Tris, pH 7.5, 100 mM NaCl, 2 mM CaCl2 and 0.005% Triton X-100. Buffer B contains 50 mM Tris, pH 7.5, 100 mM NaCl, 10 mM CaCl2, 0.5% BSA, 60 nM TF1-243,and 1 mM CHAPS. The initial change in absorbance at 405 nm was monitored after addition of substrate. Controls lacking inhibitor and/or enzyme were also assayed to assess the uninhibited rates and the background substrate hydrolysis rates, respectively.
# bovine chymotrypsin = test: Specificity assay, bovine chymotrypsin; type: biochemical; settings: for Percent Activity of Chymotrypsin: 100 nM inhibitor, ~1 h, 10 nM enzyme; for inhibition of bovine chymotrypsin, in words: text statement
# Method: as §1
# HLE = test: Specificity assay, HLE; type: biochemical, human; settings: for Percent Activity of HLE: 100 nM inhibitor, ~1 h, 17 nM enzyme
# Method: as §1
# Factor XIIa = test: Specificity assay, Factor XIIa; type: biochemical, human; settings: for Percent Activity of Factor XIIa: 100 nM inhibitor, ~1 h, 10 nM enzyme
# Method: as §1
# thrombin = test: Specificity assay, thrombin; type: biochemical, human; settings: for Percent Activity of Thrombin: 100 nM inhibitor, ~1 h, 3.7 nM enzyme
# Method: as §1
# FXIa = test: Specificity assay, FXIa; type: biochemical, human; settings: for Percent Activity of Factor XIa: 100 nM inhibitor, ~1 h, 1.2 nM enzyme
# Method: as §1
# bovine trypsin = test: Specificity assay, bovine trypsin; type: biochemical; settings: for Percent Activity of Trypsin: 100 nM inhibitor, ~1 h, 10 nM enzyme; for inhibition of bovine trypsin, in words: text statement
# Method: as §1
# plasma kallikrein = test: Specificity assay, plasma kallikrein; type: biochemical, human; settings: for Percent Activity of Kallikrein: 100 nM inhibitor, ~1 h, 10 nM enzyme
# Method: as §1
# activated protein C = test: Specificity assay, activated protein C; type: biochemical, human; settings: for Percent Activity of Activated protein C: 100 nM inhibitor, ~1 h, 4.3 nM enzyme
# Method: as §1
# FXa [2] = test: Ecotin·FXa dissociation rate constant (HLE trap); type: biochemical, human; settings: for koff (values in parenthesis): calculated from (Ki)·(kon); for koff: measured in presence of excess HLE to trap free ecotin
# Method: Determination of FXa dissociation rate constant The dissociation rate constant of the ecotin.cndot.FXa complex was measured using HLE to trap the free ecotin released from the complex. FXa (10 μM) was incubated for 1 h in TNCT buffer in the presence and absence of ecotin (12.5 μM) and diluted 1000-fold into TNCT buffer with and without HLE (500 nM). Aliquots (180 μl ) were removed at various times and initial rates of free FXa were measured at 405 nm with 20 μl of 5 mM Spectrozyme fXa. The product curve (free FXa versus time) was fit to equation 6; the value for koff was determined by nonlinear regression analysis.
# To measure the dissociation rate constant of ecotin from FXa, the complex was diluted 1000-fold into buffer containing a 50-fold excess of HLE to trap the free ecotin and prevent reassociation. In the absence of HLE, reassociation of ecotin with FXa was so rapid that free FXa was barely detectible (FIG. 4B). Progress of dissociation was monitored as the increase in hydrolysis rate of Spectrozyme fXa resulting from the increasing free FXa with time. Because HLE prevented reassociation the rate of dissociation of the E·I complex is given by equation (5): [formula] which upon integration gives equation (6): […]
# where [E] is the free [FXa] at any time t, [E.cndot.I]0 is the concentration of the complex at time zero, and koff is the first order dissociation rate constant. The time dependent E·I complex dissociation curve fit to equation (6) by nonlinear regression analysis is shown in FIG. 4B; the dissociation rate constant for ecotin tested is shown above in Table I.
# TF·FVIIa = test: Specificity assay, TF·FVIIa; type: biochemical, human; settings: for Percent Activity of TF/Factor VIIa: 100 nM inhibitor, ~1 h, 12.0 nM enzyme
# Method: as §1
# single chain t-PA = test: Specificity assay, single chain t-PA; type: biochemical, human; settings: for Percent Activity of t-PA: 100 nM inhibitor, ~1 h, 15 nM enzyme
# Method: as §1
# [3] = text statement, listed as ecotin
Substance,Percent Activity of Factor Xa (FXa [1]) [%],Percent Activity of Chymotrypsin (bovine chymotrypsin) [%],Percent Activity of HLE (HLE) [%],"inhibition of HLE, in words (HLE; text statement)",Percent Activity of Factor XIIa (Factor XIIa) [%],"inhibition of FXIIa, in words (Factor XIIa; text statement)",Percent Activity of Thrombin (thrombin) [%],"inhibition of thrombin, in words (thrombin; text statement)",Percent Activity of Factor XIa (FXIa) [%],"inhibition of FXIa, in words (FXIa; text statement)",Percent Activity of Trypsin (bovine trypsin) [%],Percent Activity of Kallikrein (plasma kallikrein) [%],"inhibition of plasma kallikrein, in words (plasma kallikrein; text statement)",Percent Activity of Activated protein C (activated protein C) [%],"inhibition of activated protein C, in words (activated protein C; text statement)",koff (values in parenthesis) (FXa [2]) [s⁻¹],Percent Activity of TF/Factor VIIa (TF·FVIIa) [%],"inhibition of TF·FVIIa, in words (TF·FVIIa; text statement)",Percent Activity of t-PA (single chain t-PA) [%],"inhibition of t-PA, in words (single chain t-PA; text statement)",also measured
"Ecotin: E. coli periplasmic protein having the 142 amino acid residue sequence reported by McGrath et al.; recombinant, P1 Met84",0,0,0,potently inhibited,0,potently inhibited,98,did not effectively inhibit,79,did not effectively inhibit,0,0,potently inhibited,99,did not effectively inhibit,2.2e-05,99,did not effectively inhibit,100,did not effectively inhibit,"inhibition of thrombin, in words (thrombin; [3]): little or no inhibition; inhibition of FXIa, in words (FXIa; [3]): little or no inhibition; inhibition of activated protein C, in words (activated protein C; [3]): little or no inhibition; half-life of ecotin·FXa complex in vitro (FXa [2]): ca. 3 h; koff (FXa [2]): 6.5e-05 s⁻¹; koff (FXa [2]; listed as Wild type): 6.5e-05 s⁻¹; koff (FXa [2]; listed as ecotin): 6.5e-05 s⁻¹; inhibition of TF·FVIIa, in words (TF·FVIIa; [3]): little or no inhibition; also recorded: No inhibition; also recorded: does not inhibit; inhibition of t-PA, in words (single chain t-PA; [3]): little or no inhibition; also recorded: No inhibition"
M84K,2,1,85,effectively diminished inhibition; also recorded: no longer inhibited,0,still potently inhibited,16,significant inhibition,12,significant inhibition,0,2,still potently inhibited,65,significant inhibition,4.5e-06,92,"Neither ecotin, the M84R or M84K mutants inhibited",100,"Neither ecotin, the M84R or M84K mutants inhibited","inhibition of bovine chymotrypsin, in words (bovine chymotrypsin): significantly inhibited; inhibition of HLE, in words (HLE; listed as P1 Lys mutant): did not inhibit; inhibition of FXIIa, in words (Factor XIIa; listed as P1 Lys mutant): significantly inhibited; inhibition of thrombin, in words (thrombin; listed as P1 Lys mutant): significantly inhibited; inhibition of FXIa, in words (FXIa; listed as P1 Lys mutant): significantly inhibited; inhibition of bovine trypsin, in words (bovine trypsin): significantly inhibited; inhibition of plasma kallikrein, in words (plasma kallikrein; listed as P1 Lys mutant): significantly inhibited; inhibition of activated protein C, in words (activated protein C; listed as P1 Lys mutant): significantly inhibited; inhibition of TF·FVIIa, in words (TF·FVIIa; listed as P1 Lys mutant): did not inhibit; inhibition of t-PA, in words (single chain t-PA; listed as P1 Lys mutant): did not inhibit"
M84R,1,0,88,effectively diminished inhibition; also recorded: no longer inhibited,1,still potently inhibited,4,significant inhibition,5,significant inhibition,0,1,still potently inhibited,50,significant inhibition,1e-06,87,"Neither ecotin, the M84R or M84K mutants inhibited",100,"Neither ecotin, the M84R or M84K mutants inhibited","inhibition of bovine chymotrypsin, in words (bovine chymotrypsin): significantly inhibited; inhibition of HLE, in words (HLE; listed as P1 Arg mutant): did not inhibit; inhibition of FXIIa, in words (Factor XIIa; listed as P1 Arg mutant): significantly inhibited; inhibition of thrombin, in words (thrombin; listed as P1 Arg mutant): significantly inhibited; inhibition of FXIa, in words (FXIa; listed as P1 Arg mutant): significantly inhibited; inhibition of bovine trypsin, in words (bovine trypsin): significantly inhibited; inhibition of plasma kallikrein, in words (plasma kallikrein; listed as P1 Arg mutant): significantly inhibited; inhibition of activated protein C, in words (activated protein C; listed as P1 Arg mutant): significantly inhibited; inhibition of TF·FVIIa, in words (TF·FVIIa; listed as P1 Arg mutant): did not inhibit; inhibition of t-PA, in words (single chain t-PA; listed as P1 Arg mutant): did not inhibit"
